Experimental data: patent publication US20060079453A1, “Hla binding peptides and their uses” (priority 2002, published 2006)
Like-named read-outs stand apart in the source and are kept apart here. No end group written: not given here.

Columns and labels:
HLA-DR DRB1*1101 (DR11) = HLA-DR DRB1*1101 (DR11) (Homo sapiens, UniProt P01903+P01911, A100R/A169T/A87E/I96F/K41T/L162R/M171V/P40S/Q125H/Q178H/Q39Y/Q99D/R42S/S66Y/T262R/V115G/W38E); assay: biochemical; assay type: binding
HLA-DR DRB1*0301 (DR3) = HLA-DR DRB1*0301 (DR3) (Homo sapiens, UniProt P01903+P01911, A100K/A102G/A103R/A169T/F55Y/I96L/K41T/L162R/M171V/P40S/Q125H/Q178H/Q39Y/R42S/S66N/T106N/T262R/W38E/Y61H); assay: biochemical; assay type: binding
Sequence of HLA-DR DRB1*0301 (DR3) (P01903 26-254 limits assumed, other chains not shown): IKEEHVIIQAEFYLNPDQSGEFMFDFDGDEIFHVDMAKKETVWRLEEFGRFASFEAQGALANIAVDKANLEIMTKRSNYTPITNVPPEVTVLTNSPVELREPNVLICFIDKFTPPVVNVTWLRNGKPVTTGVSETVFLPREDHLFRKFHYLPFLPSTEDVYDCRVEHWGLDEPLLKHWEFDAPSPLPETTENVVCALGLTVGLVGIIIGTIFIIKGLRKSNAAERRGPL

HLA-DR DRB4*0101 (DR53) = HLA-DR DRB4*0101 (DR53) (Homo sapiens, UniProt P01903+P13762, G164S); assay: biochemical; assay type: binding; conditions: DRB4 *0101
HLA-DR DRB5*0101 (DR51) = HLA-DR DRB5*0101 (DR51) (Homo sapiens, UniProt P01903+Q30154); assay: biochemical; assay type: binding
HLA-DR DRB1*0901 (DR9) = HLA-DR DRB1*0901 (DR9) (Homo sapiens, UniProt P01903+P01911, A100R/A103E/D57H/D86V/F55Y/F60I/F76Y/I96F/K127E/L162R/M171V/P40D/Q125H/Q99R/R33Q/R42F/S133A/S66N/T210M/V115G/W38K/Y107V/Y59G/Y89S); assay: biochemical; assay type: binding; conditions: DRB1 *0901
[1] = target: HLA-DQ DQA1*0301/B*0301 (DQ7) (Homo sapiens, UniProt P01909+P01920, A209T/C70Q/DUP78-78/E183D/F237L/G63E/I129T/K197E/L178F/L74F/L98V/Q57E/Q76R/S185I/S97I/T49S/V73L); assay: biochemical; assay type: binding
[2] = target: HLA-DQ DQA1*0501/B*0201 (DQ2) (Homo sapiens, UniProt P01909+P01920, A45G/A70V/D89A/E106A/E77G/E98D/H199R/L107V/N214S/P84L/P87L/T103K/T109R/T172A/T60S/V78E/V99I/Y58L/Y62S/Y69I/Y79F); assay: biochemical
HLA-DR DRB1*0405 (DR4) = HLA-DR DRB1*0405 (DR4) (Homo sapiens, UniProt P01903+P01911, A100R/A169T/D86S/F76Y/I96L/K127E/L162R/M171V/N62H/P40V/Q125Y/R42H/S133A/S149N/S66Y/V115G/V209L/W38E); assay: biochemical; assay type: binding; conditions: DRB1 *0405
HLA-DR DRB1*0802 (DR8) = HLA-DR DRB1*0802 (DR8) (Homo sapiens, UniProt P01903+P01911, A100R/A103L/A169T/F76Y/H45Y/I96F/K41T/L162R/M171V/P40S/Q125H/Q178H/Q39Y/Q99D/R218S/R42G/S66Y/V115G/W38E); assay: biochemical; assay type: binding
[3] = target: HLA-DQ DQA1*0301/B*0302 (DQ8) (Homo sapiens, UniProt P01909+P01920, A209T/A45G/C70Q/D89A/DUP78-78/E183D/E77G/F237L/G63E/H199R/I129T/K197E/L178F/L74F/L98V/Q57E/Q76R/S185I/S97I/T217I/T49S/V73L/Y58L); assay: biochemical
HLA-DR DRB1*1302 (DR13) = HLA-DR DRB1*1302 (DR13) (Homo sapiens, UniProt P01903+P01911, A100E/A169T/K41T/L162R/M171V/P40S/Q125H/Q178H/Q39Y/Q99D/R42S/S66N/T262R/V115G/W38E/Y61H); assay: biochemical; assay type: binding; conditions: DRBI *1302
Sequence of HLA-DR DRB1*1302 (DR13) (P01903 26-254 limits assumed, other chains not shown): as above

HLA-DR DRB3*0101 (DR52) = HLA-DR DRB3*0101 (DR52) (Homo sapiens, UniProt P01903+P79483); assay: biochemical; assay type: binding
HLA-DR DRB1*0701 (DR7) = HLA-DR DRB1*0701 (DR7) (Homo sapiens, UniProt P01903+P01911, A100R/A102G/A103Q/D57E/D86V/E43K/F76Y/K127E/L162R/M171V/P40G/Q125H/Q99D/R33Q/R42Y/R54Q/S133A/S66F/T210M/V115G/Y107V/Y59L/Y89S); assay: biochemical; assay type: binding
HLA-DR DRB1*0101 (DR1) = HLA-DR DRB1*0101 (DR1) (Homo sapiens, UniProt P01903+P01911, A100R/D57E/F55L/F60I/F76Y/I96L/L162R/M171V/P40L/Q125E/R42F/V115G/Y59C); assay: biochemical; assay type: binding
HLA-DR DRB1*0401 (DR4) = HLA-DR DRB1*0401 (DR4) (Homo sapiens, UniProt P01903+P01911, A100K/A169T/F76Y/I96L/K127E/L162R/M171V/N62H/P40V/Q125Y/R42H/S133A/S149N/S66Y/V115G/V209L/W38E); assay: biochemical; assay type: binding
HLA-DR DRB5*0201 = assay type: binding, human; conditions: read-out: DRB5 *0201
HLA-DR DRB1*1501 (DR15) = HLA-DR DRB1*1501 (DR15) (Homo sapiens, UniProt P01903+P01911); assay: biochemical; assay type: binding; conditions: DRBI *1501

Sequence of HLA-DR DRB1*1101 (DR11) (P01903 26-254 limits assumed, other chains not shown): as above

Substance	IC50 (HLA-DR DRB1*1101 (DR11); DRB1 *1101) [nM]	IC50 (HLA-DR DRB1*0301 (DR3)) [nM]	IC50 (HLA-DR DRB4*0101 (DR53)) [nM]	IC50 (HLA-DR DRB5*0101 (DR51); DRB5 *0101) [nM]	IC50 (HLA-DR DRB1*0901 (DR9)) [nM]	IC50 [1] [nM]	IC50 [2] [nM]	IC50 (HLA-DR DRB1*0405 (DR4)) [nM]	IC50 (HLA-DR DRB1*0802 (DR8)) [nM]	IC50 [3] [nM]	IC50 (HLA-DR DRB1*1302 (DR13)) [nM]	IC50 (HLA-DR DRB3*0101 (DR52)) [nM]	IC50 (HLA-DR DRB1*0701 (DR7); DRB1 *0701) [nM]	IC50 (HLA-DR DRB1*0101 (DR1); DRB1 *0101) [nM]	IC50 (HLA-DR DRB1*0401 (DR4); DRB1 *0401) [nM]	IC50 (HLA-DR DRB1*1501 (DR15)) [nM]	other results
QHLCGSHLVEALYLV	> 10500	48600	1480	32000	7420	2550	359	9820	> 54400	8410	7620	14800	86	170	13000	–	–
SAAPLRTITADTFRK	–	–	–	–	–	301	1100	1460	28100	> 46700	–	–	3650	–	–	–	–
YAR(15A)SQTTLKAKT	–	–	–	–	–	–	–	–	–	–	–	–	–	–	–	–	IC50 (HLA-DR DRB1*1101 (DR11); read-out: DRB1 *1101): 2.5 nM; IC50 (HLA-DR DRB5*0101 (DR51); read-out: DRB5 *0101): 1.4 nM; IC50 (HLA-DR DRB5*0201): 48 nM; IC50 (HLA-DR DRB1*0101 (DR1); read-out: DRB1 *0101): 2.4 nM; IC50 (HLA-DR DRB1*0401 (DR4); read-out: DRB1 *0401): 0.78 nM
AAFAAAKTAAAFA	–	–	–	–	–	–	–	–	–	–	–	–	–	–	–	–	IC50 (HLA-DR DRB1*1101 (DR11); read-out: DRB1 *1101): 4.6 nM; IC50 (HLA-DR DRB5*0101 (DR51); read-out: DRB5 *0101): 25 nM; IC50 ([1]; read-out: DQB1*0301): 49 nM; IC50 (HLA-DR DRB5*0201): 6.4 nM; IC50 (HLA-DR DRB3*0101 (DR52); read-out: DRB3 *0101): 20000 nM; IC50 (HLA-DR DRB1*0701 (DR7); read-out: DRB1 *0701): 67 nM; IC50 (HLA-DR DRB1*0101 (DR1); read-out: DRB1 *0101): 1.3 nM; IC50 (HLA-DR DRB1*0401 (DR4); read-out: DRB1 *0401): 0.19 nM
LQLHVDKAVSGLRSL	910	22	31	76	> 78900	88	7590	13600	801	7840	53	1040	3210	–	9.7	2710	–
GLALLSEAVLRGQAL [GLALLSEAVLRGQAL]	2580	816	3.5	–	15100	107	6740	1440	2000	17000	1220	> 38200	4610	83	11	–	–
YAR(15A)RQTTLKAAA	–	–	–	–	–	–	–	–	–	–	–	–	–	–	–	–	IC50 (HLA-DR DRB1*1101 (DR11); read-out: DRB1 *1101): 1.2 nM; IC50 (HLA-DR DRB5*0101 (DR51); read-out: DRB5 *0101): 0.94 nM; IC50 (HLA-DR DRB5*0201): 62 nM
IDVWLGGLAENFLPY	–	–	–	–	–	204	13	–	–	138	–	–	–	–	–	–	–
ISLLLIQSWLEPVQF	2680	27900	2.5	> 9960	–	> 89300	5230	0.86	> 33300	562	120	6760	83	184	885	60	–
MSYNLLGFLQRSSNT	3070	108000	4660	9	8970	–	–	433	900	> 51200	1330	51800	8870	–	–	6.8	–
WKRMEVGQQAVEVWQ	512	–	–	4300	14700	13700	159	94	–	12100	159	> 42200	46100	62	24	–	–
(15A)RQTTLKAAA	–	–	–	–	–	–	–	–	–	–	–	–	–	–	–	–	IC50 (HLA-DR DRB1*1101 (DR11); read-out: DRB1 *1101): 1.8 nM; IC50 (HLA-DR DRB5*0101 (DR51); read-out: DRB5 *0101): 9.5 nM; IC50 (HLA-DR DRB5*0201): 3100 nM; IC50 (HLA-DR DRB1*0101 (DR1); read-out: DRB1 *0101): 4.2 nM; IC50 (HLA-DR DRB1*0401 (DR4); read-out: DRB1 *0401): 0.31 nM
GSHLVEALYLVCGER	> 10500	> 187000	372	29300	5390	> 89300	677	4610	> 54400	2490	8030	> 18700	560	525	8290	1350	–
RLFDNASLRAHRLHQ	–	97	3210	557	23800	–	–	–	15000	> 36200	84	11400	–	89	77	85	–
IDVWLGGLAKNFLPY	–	–	–	–	–	–	> 4170	–	–	–	–	–	–	–	–	–	–
